{"source": "patent US12673054B2", "about": "“Substituted nucleoside analogs as PRMT5 inhibitors” (Lupin Limited, priority 2019, dated 2026)", "key": {"[1]": {"tested_on": "MIA PaCa-2 xenograft", "assay": "Subchronic MIA PaCa-2 xenograft model, tumor growth inhibition", "assay_type": "in vivo, Mus musculus", "settings": "2 mg/kg dose, female athymic nude mice", "method": "Tumor size was measured with Digimatic Vernier caliper (Mitutoyo, Japan) when the tumors became palpable. Tumor volume (T. V.) is calculated by using the formula: Tumor volume (mm3)=(L×W2)/2\nWhere, L: Length of tumor, W: Width of tumor in millimeter Percent tumor growth inhibition (% TGI) is calculated using the formula: % TGI=[1−(Tf−Ti)/(Cf−Ci)]×100\nWhere, Tf and Ti, are the final and initial tumor volumes (test compound), and Cf and Ci are the final and initial mean tumor volumes (vehicle group), respectively.\nTumor fragment xenograft for pancreatic cancer cell line MIA PaCa-2 was established by implantation of tumor fragments 30-45 mm^3 subcutaneously into the right flank of female athymic nude FOXn1/J/Mus musculus mice with an age between 10-11 weeks purchased from the Jackson Laboratory, USA. All animal study proposals were reviewed and approved by the Institutional Animal Ethics Committee (IAEC) prior to initiation of experimentation."}, "[2]": {"molecular_target": "PRMT5:MEP50 (Homo sapiens, UniProt O14744)", "sequence (O14744 whole entry, the tested form may be a part)": "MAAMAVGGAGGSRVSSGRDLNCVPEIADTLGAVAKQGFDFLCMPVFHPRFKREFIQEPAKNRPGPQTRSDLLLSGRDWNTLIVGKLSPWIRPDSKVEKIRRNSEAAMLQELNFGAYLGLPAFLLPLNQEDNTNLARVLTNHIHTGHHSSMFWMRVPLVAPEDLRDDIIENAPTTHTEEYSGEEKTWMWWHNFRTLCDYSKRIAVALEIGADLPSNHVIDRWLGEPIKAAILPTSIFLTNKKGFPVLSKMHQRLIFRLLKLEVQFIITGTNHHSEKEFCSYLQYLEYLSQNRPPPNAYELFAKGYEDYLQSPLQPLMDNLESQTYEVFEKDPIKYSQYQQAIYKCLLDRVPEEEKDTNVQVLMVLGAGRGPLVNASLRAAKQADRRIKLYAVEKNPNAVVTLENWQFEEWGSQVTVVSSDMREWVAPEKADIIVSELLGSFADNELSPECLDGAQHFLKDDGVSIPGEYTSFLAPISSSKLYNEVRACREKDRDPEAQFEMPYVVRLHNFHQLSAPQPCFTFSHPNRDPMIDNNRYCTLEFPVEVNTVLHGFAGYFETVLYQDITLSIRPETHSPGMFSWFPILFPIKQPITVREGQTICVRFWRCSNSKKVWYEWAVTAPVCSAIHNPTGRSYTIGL", "sequence (Q9BQA1 whole entry partner, the tested form may be a part)": "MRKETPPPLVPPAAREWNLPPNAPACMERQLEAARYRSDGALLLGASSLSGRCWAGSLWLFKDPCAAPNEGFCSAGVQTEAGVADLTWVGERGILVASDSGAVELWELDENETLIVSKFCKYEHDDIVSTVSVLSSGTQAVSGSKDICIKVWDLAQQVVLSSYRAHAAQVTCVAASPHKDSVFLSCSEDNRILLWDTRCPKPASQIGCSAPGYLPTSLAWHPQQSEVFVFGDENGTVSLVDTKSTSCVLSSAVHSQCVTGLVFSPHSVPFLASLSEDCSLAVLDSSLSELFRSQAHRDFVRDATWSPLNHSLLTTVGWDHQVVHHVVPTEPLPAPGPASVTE", "assay": "Biochemical assay, HTRF detection, inhibitory effect on PRMT5", "settings": "biotinylated H4R3 substrate, 1 μM SAM; protocol 1 or 2 not given; read-out: IC50 (PRMT5 inhibition), activity range", "method": "(§1) Inhibitory effect of compounds on PRMT5 was assessed using HTRF detection technology in biochemical assay. Biotinylated H4R3 (residues 1-21) was used as a substrate. Compounds were pre-incubated with 15-25 ng PRMT5:MEP50 per well of a 384-well plate for 30 min at room temperature in the assay buffer containing 20 mM Bicine, pH 7.6, 25 mM NaCl, 2 mM DTT, 0.01% Chicken albumin and 0.01% Tween-20. Reaction was initiated by adding 1 μM of SAM and 50 nM biotinylated H4R3. Total assay volume was 15 μL. Reaction was continued for 120 min at room temperature. Then detection solution containing Streptavidin-Eu cryptate, anti-rabbit IgG-XL-665, Histone H4R3 Dimethyl Symmetric (H4R3me2s) Polyclonal Antibody, all prepared in HTRF detection buffer was added and further incubated for 30 min at room temperature. HTRF signal was recorded in PHERAStar microplate reader. Ratio of signal obtained at 665 nm and 620 nm was used to compute the percent inhibition of compound as follows % Inhibition=100−((Test Ratio−Negative control Ratio)/(Positive control Ratio−Negative control Ratio)*100) where Positive control=PRMT5+SAM+H4R3 Negative control=PRMT5+H4R3\nas §1, with “2.5” for “15-25”, “4 h” for “120 min”"}, "[3]": {"tested_on": "MIA PaCa-2 cells", "assay": "Anti-Cancer Assay (MIA PaCa-2)", "assay_type": "cell-based", "settings": "Homo sapiens, 240 h, 10 days, read-out: IC50 (inhibition of cell viability), activity range", "method": "(§2) Z-138 cells were seeded at a density of 2000-3000 cells per well in culture media (IMDM+10% FBS). PANC-1 (ATCC, CRL-1469™) and MIA PaCa-2 (ATCC, CRL-1420™) cells were seeded at a density of 200-300 cells per well in culture media (DMEM+10% FBS). Cells were seeded in opaque, flat bottomed tissue culture grade 96-well plates and Z-138 cells (suspension) were seeded and treated on the same day with various concentrations of test compounds. PANC-1 and MIA PaCa-2 cells, being adherent, were kept for overnight settlement at standard cell culture conditions (37° C., 5% CO2). On the following day, cells were treated with various concentrations of test compounds. Cells were treated with test compounds for a period of 96 h, 7 days and 10 days, for Z-138 cells, PANC-1 cells and MIA PaCa-2 cells, respectively. Cell viability was assessed using CellTiterGlo™ (Promega, USA) as per manufacturer's instructions. Relative Light Units (RLU) were read in Synergy™ 2 reader (Biotek, USA). The assay measures cellular ATP as an indicator of cell viability. RLU is proportional to the number of viable cells in the respective well.\n(§3) % inhibition of cell viability was calculated relative to the vehicle control samples containing media with 0.1% DMSO alone as per the formula below. (Avg. of Untreated Control−Avg. of Test)×100 • Avg. of Untreated control\n(§4) The IC50 values of individual compounds were calculated with Non Linear Regression Analysis using Graph Pad Prism (Graph Pad software, Inc, USA)."}, "[4]": {"tested_on": "SDMA", "assay": "SDMA inhibition assay", "assay_type": "cell-based", "settings": "Homo sapiens, Z-138 cells, 48 h", "method": "Z-138 cells (ATCC, CRL-3001™) were seeded at a density of 1 million cells/well in transparent, flat bottomed tissue culture grade 48-well plates. Cells were treated with various concentration of test compounds for a period of 48 h. Cell lysate was prepared using 1×CST Lysis buffer (Cell Signaling Technology, USA) and 500 ng/well/50 μL of lysate in pH 9.6 carbonate buffer was coated on 96-well Maxisorb plate and incubated overnight at 4° C. The plate was washed twice in 1×PBS containing 0.05% Tween 20 and blocked in 1% BSA for 1 h at ambient temperature. Further, the plate was incubated first with primary antibody (anti-SDMA antibody; CST #13222s) at ambient temperature for 2 h and then with HRP-conjugated secondary antibody at ambient temperature for 1 h with 2 intermittent washing steps in between.\nFor luminescence based detection, HRP substrates (substrate A+ substrate B in a 1:1 proportion) were added followed by luminescence reading after 30 min in Synergy™ 2 reader (Biotek, USA).\nFor absorbance based detection, TMB substrate was added followed by addition of STOP solution (2N H2SO4) post colour development and absorbance (excitation 450 nm and emission 540 nm) was measured in Synergy™ 2 reader (Biotek, USA).\n% inhibition of SDMA was calculated relative to the vehicle control samples containing media with 0.1% DMSO alone as per the formula below. (Avg. of Untreated Control−Avg. of Test)×100 • Avg. of Untreated control\nas §4"}, "[5]": {"tested_on": "Z-138 cells", "assay": "Anticancer activity assay (cell viability, CellTiterGlo)", "assay_type": "cell-based", "settings": "Homo sapiens, cell line not given, read-out: IC50 (inhibition of cell viability), activity range", "method": "as §2, §3, §4"}, "[6]": {"settings": "range given with mixed units (pM to nM)"}, "[7]": {"settings": "read-out: IC50 (SDMA inhibition), activity range"}}, "note": "Where two headings read alike, the source gives them in different places."}
{"smiles": "Cc1nc(N)nc2c1ccn2[C@@H]1C=C(CCc2cc(F)c3cc(Cl)c(N)nc3c2)[C@@H](O)[C@H]1O", "note": "[Example 1, (1S,2R,5R)-3-(2-(2-Amino-3-chloro-5-fluoroquinolin-7-yl)ethyl)-5-(2-amino-4-methyl-7H-pyrrolo[2,3-d]pyrimidin-7-yl)cyclopent-3-ene-1,2-diol]", "values": [{"measurement": "% of tumor growth inhibition", "setting": "[1]", "value": 57, "unit": "%"}, {"measurement": "IC50", "setting": "[2]", "value": "0.4 to 0.75", "unit": "nM"}, {"measurement": "IC50", "setting": "[3]", "value": "1 to 400", "unit": "pM"}, {"measurement": "IC50", "setting": "[4]; [6]", "value": "100 to 1000", "unit": "pM"}]}
{"smiles": "Cc1nc(N)nc2c1ccn2[C@@H]1C=C(COc2cc(F)c3cc(Cl)c(N)nc3c2)[C@@H](O)[C@H]1O", "note": "[Example 2, (1S,2R,5R)-3-(((2-Amino-3-chloro-5-fluoroquinolin-7-yl)oxy)methyl)-5-(2-amino-4-methyl-7H-pyrrolo[2,3-d]pyrimidin-7-yl)cyclopent-3-ene-1,2-diol]", "values": [{"measurement": "IC50", "setting": "[2]", "value": "0.4 to 0.75", "unit": "nM"}, {"measurement": "IC50", "setting": "[3]; [6]", "value": "401 to 30000", "unit": "pM"}, {"measurement": "IC50", "setting": "[4]; [7]", "value": "1100 to 50000", "unit": "pM"}]}
{"smiles": "Cc1nc(N)c2ccn([C@@H]3C=C(COc4cc(F)c5cc(Cl)c(N)nc5c4)[C@@H](O)[C@H]3O)c2n1", "note": "[Example 3, (1S,2R,5R)-5-(4-Amino-2-methyl-7H-pyrrolo[2,3-d]pyrimidin-7-yl)-3-(((2-amino-3-chloro-5-fluoroquinolin-7-yl)oxy)methyl)cyclopent-3-ene-1,2-diol]", "values": [{"measurement": "IC50", "setting": "[2]", "value": "0.4 to 0.75", "unit": "nM"}, {"measurement": "IC50", "setting": "[3]; [6]", "value": "401 to 30000", "unit": "pM"}, {"measurement": "IC50", "setting": "[4]; [7]", "value": "1100 to 50000", "unit": "pM"}]}
{"smiles": "Cc1nc(N)nc2c1cnn2[C@@H]1C=C(CCc2cc(F)c3cc(Cl)c(N)nc3c2)[C@@H](O)[C@H]1O", "note": "[Example 4, (1S,2R,5R)-3-(2-(2-Amino-3-chloro-5-fluoroquinolin-7-yl)ethyl)-5-(6-amino-4-methyl-1H-pyrazolo[3,4-d]pyrimidin-1-yl)cyclopent-3-ene-1,2-diol]", "values": [{"measurement": "IC50", "setting": "[2]", "value": "0.4 to 0.75", "unit": "nM"}, {"measurement": "IC50", "setting": "[3]; [6]", "value": "401 to 30000", "unit": "pM"}, {"measurement": "IC50", "setting": "[4]; [6]", "value": "100 to 1000", "unit": "pM"}]}
{"smiles": "Cc1nc(N)c2ccn([C@@H]3C=C(COc4cc(C(F)F)cc5c4CNCC5)[C@@H](O)[C@H]3O)c2n1", "note": "[Example 5, (1S,2R,5R)-5-(4-Amino-2-methyl-7H-pyrrolo[2,3-d]pyrimidin-7-yl)-3-(((6-(difluoromethyl)-1,2,3,4-tetrahydroisoquinolin-8-yl)oxy)methyl)cyclopent-3-ene-1,2-diol]", "values": [{"measurement": "IC50", "setting": "[2]", "value": "> 0.75", "unit": "nM"}, {"measurement": "IC50", "setting": "[5]", "value": "> 1", "unit": "nM"}]}
{"smiles": "Cc1nc(N)c2ccn([C@@H]3C=C(CCc4cc(C(F)F)cc5c4CNCC5)[C@@H](O)[C@H]3O)c2n1", "note": "[Example 6, (1S,2R,5R)-5-(4-Amino-2-methyl-7H-pyrrolo[2,3-d]pyrimidin-7-yl)-3-(2-(6-(difluoromethyl)-1,2,3,4-tetrahydroisoquinolin-8-yl)ethyl)cyclopent-3-ene-1,2-diol]", "values": [{"measurement": "IC50", "setting": "[2]", "value": "> 0.75", "unit": "nM"}, {"measurement": "IC50", "setting": "[5]", "value": "> 1", "unit": "nM"}]}
{"smiles": "Cc1nc(N)c2ccn([C@@H]3C=C(CCc4cc(F)c5cc(Cl)c(N)nc5c4)[C@@H](O)[C@H]3O)c2n1", "note": "[Example 7, (1S,2R,5R)-5-(4-Amino-2-methyl-7H-pyrrolo[2,3-d]pyrimidin-7-yl)-3-(2-(2-amino-3-chloro-5-fluoroquinolin-7-yl)ethyl)cyclopent-3-ene-1,2-diol]", "values": [{"measurement": "IC50", "setting": "[2]", "value": "0.4 to 0.75", "unit": "nM"}, {"measurement": "IC50", "setting": "[3]", "value": "1 to 400", "unit": "pM"}, {"measurement": "IC50", "setting": "[4]; [6]", "value": "100 to 1000", "unit": "pM"}]}
{"smiles": "Cc1nc(N)nc2c1ccn2[C@@H]1C=C(CCc2cc(C(F)F)c(F)c3c2CNCC3)[C@@H](O)[C@H]1O", "note": "[Example 8, (1S,2R,5R)-5-(2-Amino-4-methyl-7H-pyrrolo[2,3-d]pyrimidin-7-yl)-3-(2-(6-(difluoromethyl)-5-fluoro-1,2,3,4-tetrahydroisoquinolin-8-yl)ethyl)cyclopent-3-ene-1,2-diol]", "values": [{"measurement": "IC50", "setting": "[2]", "value": "0.4 to 0.75", "unit": "nM"}, {"measurement": "IC50", "setting": "[5]", "value": "> 1", "unit": "nM"}, {"measurement": "IC50", "setting": "[4]; [7]", "value": "1100 to 50000", "unit": "pM"}]}
